For assay [1], the system named is bone marrow cells (megakaryocyte colony formation). The assay can be described thus: Megakaryocyte colony formation-stimulating activity (Test Example 1). Format: cell-based, BALB/c mouse. As to conditions: with IL-3 (100 U/ml), 7 days, control (IL-3 alone) defined as 100. The method, then: An eight-weeks-old BALB/c mouse was killed. Its femurs and cervical vertebrae were taken out, and both end sections thereof were cut off. Bone marrow cells were collected from the pieces cut off from the femurs and cervical vertebrae using a syringe containing IMDM (430-2200EA prepared by Gibco Co.), and then blown into a test tube. The test tube was allowed to stand for 5 minutes, and the supernatant was collected with a piper. To a reaction mixture comprising the bone marrow cells (50,000 cells), bovine serum albumin (2%: A4508 made by Sigma Co.), transferrin (600 μg/ml: 652202 made by Boehringer Mannheim Co.), IL-3 (100 U/ml), cholesterol (16 μg/ml: 036-0641 made by Wako Co.) and agar (0.6%: 0142-02 made by Difco Laboratories) were separately added the test compounds at various concentrations, and 1 ml each of the mixtures was put into a 35-mm dish (Lux Co.), followed by incubation under the conditions of 37° C. 5% CO2 and a humidity of 95% or more for 7 days. Separately, IL-3 alone was added to the bone marrow cells to prepare a control. After the incubation was completed, the agar was dried over a filter paper (1001-055 made by Whatman Co.) and then fixed with 2.5% glutaraldehyde, followed by acetylcholinesterase staining (ACHE staining).
The ACHE staining was carried out by the method described below.
ACHE staining: To each sample was added a solution comprising 0.67 mg/ml acetylthiocholine iodide, 2.94 mg/ml sodium citrate, 7.5 mg/ml copper (II) sulfate and 1.65 mg/ml potassium ferricyanide, and the mixture was allowed to stand at room temperature in the dark for 4-6 hours.
A group of 4 or more megakaryocytes which were stained reddish brown was regarded as a colony, and the number of colonies per dish was calculated using a microscope. The results are shown in Table 2 as relative values to the control.

In a further assay the test system is platelets. Description: Platelet production-stimulating activity in mice (Test Example 2). Format: in vivo, male BALB/c mice. As to conditions: intraperitoneal, once a day for 5 days, platelets counted on day 15, A test group, B control group. The source says: A test compound was intraperitoneally administered to four 7-week-old male BALB/c mice per group once a day for consecutive 5 days (day 1 to day 5). A control group (4 mice per group) received only the solvent (5% Tween water). The blood was collected from the fundus oculi vein of each animal on the 15th day from the start of administration (day 15), and the number of the platelets was counted with a microcell counter (Model CC-180A, manufactured by Toa Iryo Denshi Co.). The rate of increase of the number of platelets in the test group (average) over the control (average) was calculated according to the following formula to evaluate the effect of the test compound.
Rate of Increase = A/B × 100
A: the number of platelets in test group
B: the number of platelets in control group

Take `CN[C@@H]1C[C@H]2O[C@@](C)([C@@H]1OC)n1c3ccccc3c3c4c(c5c6ccccc6n2c5c31)C(=O)N(CO)C4` [Compound 1]: the “Rel. Value (number of megakaryocyte colonies per dish, relative to control)” value in assay [1] (Concn. 1 nM) came to 129.

As for `CN[C@@H]1C[C@H]2O[C@@](C)([C@@H]1OC)n1c3ccccc3c3c4c(c5c6cc(C)ccc6n2c5c31)C(=O)N(C)C4` [Compound 8], in the assay on platelets (25 mg/kg), the “Rate of increase (number of platelets, A/B × 100)” value (from here on “Rate of increase”) was 134%. Moreover, in assay [1] (Concn. 10 nM), the “Rel. Value (number of megakaryocyte colonies per dish, relative to control)” value came to 157.

As for `CN[C@@H]1C[C@H]2O[C@@](C)([C@@H]1OC)n1c3ccccc3c3c4c(c5c6cc(N)ccc6n2c5c31)C(=O)N(C)C4` [Compound 12], the “Rel. Value (number of megakaryocyte colonies per dish, relative to control)” value in assay [1] (Concn. 10 nM) amounted to 126.

In the case of `CN[C@@H]1C[C@H]2O[C@@](C)([C@@H]1OC)n1c3ccc(N)cc3c3c4c(c5c6cc(N)ccc6n2c5c31)C(=O)N(C)C4` [Compound 16], the “Rel. Value (number of megakaryocyte colonies per dish, relative to control)” value in assay [1] (Concn. 1 nM) was determined as 125.

`CN[C@@H]1C[C@H]2O[C@@](C)([C@@H]1OC)n1c3ccc(OC(=O)C(C)(C)C)cc3c3c4c(c5c6cc(OC(=O)C(C)(C)C)ccc6n2c5c31)C(=O)N(C)C4` [Compound 22]: in the assay on platelets (50 mg/kg), the “Rate of increase” value is on record as 168%.

As to `CN[C@@H]1C[C@H]2O[C@@](C)([C@@H]1OC)n1c3ccccc3c3c4c(c5c6cc(C=NN(C)C)ccc6n2c5c31)C(=O)N(C)C4` [Compound 28], the “Rate of increase” value in the assay on platelets (12.5 mg/kg) was found to be 156%. In addition, in assay [1] (Concn. 1 nM), the “Rel. Value (number of megakaryocyte colonies per dish, relative to control)” value is 134.

As for `CN[C@@H]1C[C@H]2O[C@@](C)([C@@H]1OC)n1c3ccccc3c3c4c(c5c6cc(CSCCN(C)C)ccc6n2c5c31)C(=O)N(C)C4` [Compound 30], in assay [1] (Concn. 1 nM), the “Rel. Value (number of megakaryocyte colonies per dish, relative to control)” value is recorded as 116.
